Measurements: ChEMBL document CHEMBL1144470, “Occurrence of the alpha-glucosidase inhibitor 1,4-Dideoxy-1,4-imino-D-arabinitol and related iminopentitols in marine sponges” (J Nat Prod, 2007)
In brackets after ≈: the same amount, converted by molar mass.

Assay: Inhibition of yeast alpha-glucosidase
Parameters: species or system Saccharomyces cerevisiae

IC50: 0.16 µg/mL (≈ 1.2 µM)
Structure (SMILES): OC[C@H]1NC[C@@H](O)[C@@H]1O
